PubChem BioAssay AID2060344 (Molecular Pharmacology Branch, DTP, NCI, 2025)

System: SK-MEL-2 multi-cell spheroids, viability
Assay: Anticancer human tumor SK-MEL-2 cell line growth inhibition [TAK];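 note: spheroids exposed to drugs for seven days before readout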;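 for viability, T/C: percent of DMSO vehicle control luminescence so 100% = untreated viability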
Settings: for IC50: curve of first compound; for viability, T/C: stronger effect = lower value
Excerpt: Combinatorial screen of targeted agents with TAK-243 and ipatasertib in multi-cell type tumor spheroids
A high-throughput screen of multi-cell type tumor spheroids was designed to identify active combinations of targeted small molecules and TAK-243 or ipatasertib. Complex spheroids include a stromal component modeled by human endothelial cells (HUVEC) and fibroblasts modeled by human mesenchymal stem cells (MSCs). The concentration ranges selected for each drug and investigational agent were based upon clinically achievable concentrations if the clinical Cmax of the agent was known.
Compounds. The drugs and investigational agents: TAK-243 (785004), ipatasertib (767898), everolimus (733504), selumetinib (741078), bortezomib (756655), trametinib (758246), ixazomib (758254), vemurafenib (761431), dabrafenib (764134), sapanisertib (764658), alpelisib (765974), and copanlisib (816437), were obtained from the National Cancer Institute (NCI) Developmental Therapeutics Program Chemical Repository. The FDA-approved anticancer drug set is available from the NCI Developmental Therapeutics Program. […] The stock solutions were prepared in dimethyl sulfoxide (DMSO, Sigma-Aldrich, St. Louis, MO, cat. D2650) at 800-fold the tested concentration and stored at -70 degrees C prior to their use. All drugs and investigational agents were tested over a range starting from a high concentration at or near the clinical Cmax and decreasing in half-log increments. If the clinical Cmax for an agent had not been determined, the highest concentration tested was 10 microM.
NCI60 Cell Culture. NCI60 cell lines were obtained from the NCI Developmental Therapeutics Program Tumor Repository. For each lot of cells, the Repository performed Applied Biosystems AmpFLSTR Identifiler testing with PCR amplification to confirm consistency with the published Identifier STR profile for each cell line. Cells were kept in continuous culture for no more than 20 passages. The optimal seeding densities for each of the cell lines at each time point assessed were determined prior to performing the concentration response studies. Briefly, the NCI60 human tumor lines were grown as monolayers in RPMI 1640 medium supplemented with 10% FBS and 2 mmol/L L-glutamine.
An additional 2 lines were from the NCI60 cell line panel including melanomas, MALME-3M and SK-MEL-2. Pooled donor human umbilical vein endothelial cells (HUVEC, Lonza, cat. CC-2519) and human mesenchymal stem cells (hMSC, Lonza, cat. PT-2501) were purchased from Lonza (Walkersville, MD).
PDMR cell lines were grown in complete medium (DC medium): Dulbecco's modified Eagle's medium (DMEM)/F12 supplemented with 5% fetal bovine serum (FBS), 2 mM L-glutamine, 100 U/mL penicillin and 100 µg/ml streptomycin, 0.4 µg/ml hydrocortisone, 10 ng/ml epidermal growth factor (EGF) recombinant human protein, 24 µg/mL adenine, and 0.1 mg/mL primocin. During culture from frozen stock vials, PDMR cells were cultured in the same medium containing 10 µM Y-27632 (see Table 3). The PDCs were cultured in complete DMEM/F12 media without 10 microM Y-27632 dihydrochloride for at least two passages prior to the screen. The pooled donor HUVEC and hMSC were cultured in endothelial cell growth medium 2 (PromoCell, Heidelberg, Germany, cat. C-22011) and mesenchymal stem cell growth medium 2 (PromoCell, cat. C-28009), respectively. For all experiments, HUVEC and hMSC were used at passages </=5.
For the pre-screen, cell seeding densities were determined from a titration spanning the range from 5,000 to 313 cells per well. The mct-spheroids including 60% malignant cells, 25% HUVEC and 15% MSC dispensed as a mixture into U-bottom Ultra-Low Attachment 384-well plates (Corning, NY)
High-throughput Drug Combination Screening.
Prior to their inoculation into 384-well plates, malignant cells, HUVEC, and hMSC were removed from T flasks using TrypLE express (Thermo Fisher Scientific, cat. 12605036) and harvested by centrifugation for 5 min at 233 x g. […]

Question: With `Cn1cnc2c(F)c(Nc3ccc(Br)cc3Cl)c(C(=O)NOCCO)cc21` + CC(C)NCC(C(=O)N1CCN(c2ncnc3c2C(C)CC3O)CC1)c1ccc(Cl)cc1 as the compound, how does the IC50 (second compound 0.3 µM) read?
Answer: < 9.49 nM

Question: What about the IC50 (second compound 0.949 µM) of the same compound?
Answer: < 9.49 nM

Question: And the IC50 (second compound 3 µM)?
Answer: < 9.49 nM

Question: What about the IC50 (second compound 9.49 µM) of the same compound?
Answer: < 9.49 nM

Question: What about the IC50 (second compound 30 µM) of the same compound?
Answer: < 9.49 nM

Question: What about the viability, T/C (second compound 0.3 µM, first compound 0.00949 µM) of the same compound?
Answer: 36.2%

Question: And the viability, T/C (second compound 0.3 µM, first compound 0.03 µM)?
Answer: 15.6%

Question: And the viability, T/C (second compound 0.3 µM, first compound 0.0949 µM)?
Answer: 5.04%

Question: And the viability, T/C (second compound 0.3 µM, first compound 0.3 µM)?
Answer: 5.04%

Question: What about the viability, T/C (second compound 0.3 µM, first compound 0.949 µM) of the same compound?
Answer: 2.85%

Question: And the viability, T/C (second compound 0.3 µM, first compound 3 µM)?
Answer: 1.59%

Question: What about the viability, T/C (second compound 0.949 µM, first compound 0.00949 µM) of the same compound?
Answer: 32.6%

Question: What about the viability, T/C (second compound 0.949 µM, first compound 0.03 µM) of the same compound?
Answer: 12.9%

Question: And the viability, T/C (second compound 0.949 µM, first compound 0.0949 µM)?
Answer: 4.14%

Question: And the viability, T/C (second compound 0.949 µM, first compound 0.3 µM)?
Answer: 2.7%

Question: What about the viability, T/C (second compound 0.949 µM, first compound 0.949 µM) of the same compound?
Answer: 1.73%

Question: And the viability, T/C (second compound 0.949 µM, first compound 3 µM)?
Answer: 1.41%

Question: And the viability, T/C (second compound 3 µM, first compound 0.00949 µM)?
Answer: 24.3%

Question: What about the viability, T/C (second compound 3 µM, first compound 0.03 µM) of the same compound?
Answer: 10.2%

Question: What about the viability, T/C (second compound 3 µM, first compound 0.0949 µM) of the same compound?
Answer: 2.52%

Question: And the viability, T/C (second compound 3 µM, first compound 0.3 µM)?
Answer: 1.7%

Question: What about the viability, T/C (second compound 3 µM, first compound 0.949 µM) of the same compound?
Answer: 1.41%

Question: And the viability, T/C (second compound 3 µM, first compound 3 µM)?
Answer: 0.98%

Question: What about the viability, T/C (second compound 9.49 µM, first compound 0.00949 µM) of the same compound?
Answer: 19.3%

Question: What about the viability, T/C (second compound 9.49 µM, first compound 0.03 µM) of the same compound?
Answer: 9.42%

Question: What about the viability, T/C (second compound 9.49 µM, first compound 0.0949 µM) of the same compound?
Answer: 2.79%

Question: And the viability, T/C (second compound 9.49 µM, first compound 0.3 µM)?
Answer: 1.33%

Question: What about the viability, T/C (second compound 9.49 µM, first compound 0.949 µM) of the same compound?
Answer: 0.9%

Question: And the viability, T/C (second compound 9.49 µM, first compound 3 µM)?
Answer: 0.56%

Question: And the viability, T/C (second compound 30 µM, first compound 0.00949 µM)?
Answer: 21.7%

Question: And the viability, T/C (second compound 30 µM, first compound 0.03 µM)?
Answer: 8.51%

Question: What about the viability, T/C (second compound 30 µM, first compound 0.0949 µM) of the same compound?
Answer: 2.57%

Question: What about the viability, T/C (second compound 30 µM, first compound 0.3 µM) of the same compound?
Answer: 0.97%

Question: And the viability, T/C (second compound 30 µM, first compound 0.949 µM)?
Answer: 0.37%

Question: And the viability, T/C (second compound 30 µM, first compound 3 µM)?
Answer: 0.35%
